According to patent publication US20240225983A1, “COMPOSITIONS AND METHODS FOR PREVENTING OR REDUCING AUTOXIDATION OF FRAGRANCE AND FOOD OILS” (Firmenich SA, priority 2021, published 2024):
Structures can show the parent of a compound that is named as a salt.

Experiments:
[1] = POV of corn oil treated with SOP (POV titration); conditions: 0.4 mL in 8 mL corn oil, versus untreated corn oil (FIG. 3, 4)
Method: The POV of these solutions was measured periodically after standing on the laboratory benchtop at ambient light and temperature conditions.
Into a 15 mL glass vial was placed 0.201 gm of AKG and 2.011 gm of DET. The mixture was stirred with a small magnetic stirrer at room temperature over a weekend (approximately 3 days). However, not all of the AKG dissolved, so the vial was placed in a heating block at 90° C. for 15 minutes, and a clear solution was obtained. Upon cooling and standing for several days, no solid precipitated out. This material (0.4 mL) was diluted into 8 mL of corn oil to start the experiment. A sample was also made from just 0.4 mL of DET in 8 mL of corn oil. POV titration measurements were taken periodically of each sample versus untreated corn oil.
The performance of the SOPs were monitored by POV titration as described in Flavor & Fragrance Journal, M. Calandra and Y. Wang, 2020, 35:107-113 or as per the IFRA POV method (see www.ifraorg.org).

[2] = Aldehyde levels in salad dressing (DNPH derivatization, HPLC); conditions: ~2.7% (w/w) in ranch dressing, room temperature, versus untreated (FIG. 9)
Method: Aldehyde levels in corn oil or other foods (such as salad dressing) were measured using the DNPH derivatization followed by HPLC analysis method (J. Ag. Food Chem. Deng, F-Y. et al, (2014) 62, 52, 12545-12552; Food Res. Internat., Cao, J. et al, (2014) 64, 901-907). Alternatively, or in addition to aldehyde measurements by HPLC, organoleptic evaluation to assess the level of rancidity in a sample was done.
Treatment of Salad Dressing with a 2-Oxoacid Salt • Sample: Ranch dressing (chili lime flavor) • 2-Oxoacid salt used: Phenyl pyruvic acid dimethyldecylammonium salt • Dosage: ˜2.7% (w/w) (0.4 g of the salt was added to 15 g of salad dressing). • Storage conditions: Room temperature, capped loosely, and mixed periodically.

Compound: CCOC(=O)C(O)C(O)C(=O)OCC (centres unmarked) [DET, diethyl tartrate]
- POV of corn oil [1]: some measurable activity toward reducing the POV

Compound: Phenyl pyruvic acid dimethyldecylammonium salt
- aldehyde concentration (hexanal or 2-nonenal) in salad dressing [2]: aldehyde levels were lower
